Data taken from US7759389B2, “Chroman derivatives and uses thereof” (Roche Palo Alto LLC, priority 2004, dated 2010).
Structures can show the parent of a compound that is named as a salt.

What was measured:
[1] = biological target: T1, recombinant human 5-HT6 receptor (Homo sapiens, UniProt P50406); test: Radioligand binding, competition for [3H]LSD in HEK293 cell membranes; details: [3H]LSD displacement, pH 7.4, 37° C., 75 min, read-out: pKi for 5-HT6 (converted)
T1 construct: expressed in transfected cells; host or cells: HEK293
T1 sequence (P50406 whole entry): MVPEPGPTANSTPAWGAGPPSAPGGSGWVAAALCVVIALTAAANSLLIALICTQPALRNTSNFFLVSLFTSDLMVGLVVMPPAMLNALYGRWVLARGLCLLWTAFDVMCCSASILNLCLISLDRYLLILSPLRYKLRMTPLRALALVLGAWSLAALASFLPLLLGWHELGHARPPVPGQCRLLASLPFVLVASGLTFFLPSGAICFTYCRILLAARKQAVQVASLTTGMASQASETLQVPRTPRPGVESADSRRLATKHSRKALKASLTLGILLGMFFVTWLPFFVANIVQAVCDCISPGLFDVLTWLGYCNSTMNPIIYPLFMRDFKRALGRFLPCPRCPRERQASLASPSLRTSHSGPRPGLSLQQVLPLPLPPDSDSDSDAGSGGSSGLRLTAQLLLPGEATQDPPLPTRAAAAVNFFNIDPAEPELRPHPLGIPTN
Experimental: (§1) The binding activity of compounds of this invention in vitro was determined as follows. Duplicate determinations of 5-HT6 ligand affinity were made by competing for binding of [^3H]LSD in cell membranes derived from HEK293 cells stably expressing recombinant human 5-HT6 receptor. Duplicate determinations of 5-HT2A ligand affinity were made by competing for binding of [^3H]Ketanserin (3-(2-(4-(4-fluorobenzoyl)piperidinol)ethyl)-2,4(1H,3H)-quinazolinedione) in cell membranes derived from CHO-K1 cells stably expressing recombinant human 5-HT2A receptor. Membranes were prepared from HEK 293 cell lines by the method described by Monsma et al., Molecular Pharmacology, Vol. 43 pp. 320-327 (1993), and from CHO-K1 cell lines as described by Bonhaus et al., Br J Pharmacol. June; 115(4):622-8 (1995).
(§2) For estimation of affinity at the 5-HT6 receptor, all determinations were made in assay buffer containing 50 mM Tris-HCl, 10 mM MgSO4, 0.5 mM EDTA, 1 mM ascorbic acid, pH 7.4 at 37° C., in a 250 microliter reaction volume. […]
(§3) Assay tubes containing [^3H] […] LSD or [^3H]Ketanserin were determined as radioactive counts per minute using Packard TopCount.
(§4) Displacement of [^3H]LSD or [^3H]Ketanserin from the binding sites was quantified by fitting concentration-binding data to a 4-parameter logistic equation: […]

[2] = biological target: T2, recombinant human 5-HT2A receptor (Homo sapiens, UniProt P28223); test: Radioligand binding, competition for [3H]Ketanserin in CHO-K1 cell membranes; details: [3H]Ketanserin displacement, pH 7.4, 32° C., 60 min, read-out: pKi for 5-HT2A (converted)
T2 construct: expressed in transfected cells; host or cells: CHO-K1
T2 sequence (P28223 whole entry): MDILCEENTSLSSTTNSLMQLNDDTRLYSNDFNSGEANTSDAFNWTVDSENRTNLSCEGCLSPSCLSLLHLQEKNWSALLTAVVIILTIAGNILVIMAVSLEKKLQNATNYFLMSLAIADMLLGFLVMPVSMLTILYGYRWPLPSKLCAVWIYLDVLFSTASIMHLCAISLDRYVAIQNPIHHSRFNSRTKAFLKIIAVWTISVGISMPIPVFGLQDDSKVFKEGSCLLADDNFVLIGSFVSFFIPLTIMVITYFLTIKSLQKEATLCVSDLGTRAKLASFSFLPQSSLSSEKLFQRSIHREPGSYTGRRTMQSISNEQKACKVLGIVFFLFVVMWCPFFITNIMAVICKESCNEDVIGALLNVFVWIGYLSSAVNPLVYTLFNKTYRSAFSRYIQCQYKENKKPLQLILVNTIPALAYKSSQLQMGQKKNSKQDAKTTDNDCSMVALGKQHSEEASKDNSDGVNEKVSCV
Experimental: as §1, §2, §3, §4

SMILES | melting point [°C] | Ki [1] [nM] | Ki [2] [nM]
CNCC1CCOc2cc(S(=O)(=O)c3ccccc3)ccc21 (stereo not drawn) (as salt: HCl) | 158.1 to 159.8 |  | 
NCC1CCOc2cc(S(=O)(=O)c3ccccc3)ccc21 (stereo not drawn) [C-(7-Benzenesulfonyl-chroman-4-yl)-methylamine] |  | ~0.724 | ~20.4
